From patent US11911480B2, “Self-emulsifying composition of ω-3 fatty acid” (priority 2015, dated 2024)
Read-outs that look alike come from different tables or passages of the source.

How the values were obtained:
[1] = human, in vivo, po, 3600 mg
Method: The capsule having the self-emulsifying composition of the present invention containing 80% by weight of EPA-E as its content was orally administered to human (12 cases, healthy adult males of 20 to 40 years old with a body weight of 55.0 to 77.0 kg and a BMI of 18.5 or more but less than 25.0) under fasting conditions to evaluate the change of blood EPA concentration. The self-emulsifying composition in an amount corresponding to 1800 mg of EPA-E was orally administered in single dose to each human who had been fasted since 10 hours or more before the administration by using 200 mL of water in the morning under fasting. The blood was collected 0.5, 1, 1.5, 2, 3, 4, 5, 6, 7, 8, 9, 10, 12, 15, 18, 24, 48 and 72 hours after the administration. […] After having stored the resulting plasma at a temperature not higher than −20° C. in frozen state, concentration of the EPA in the plasma was measured by LC/MS/MS (method in which a sample is isolated by liquid chromatography, then subjected to mass spectrometry to conduct separation and measurement thereon). […]
This test was conducted on 6 humans. […] In the calculation of each parameter, correction was made by subtracting the blood EPA concentration before the administration from the measured blood concentration.

[2] = human, in vivo, po, 1800 mg
Method: The capsule having the self-emulsifying composition of the present invention containing 80% by weight of EPA-E as its content was orally administered to human (12 cases, healthy adult males of 20 to 40 years old with a body weight of 55.0 to 77.0 kg and a BMI of 18.5 or more but less than 25.0) under fasting conditions to evaluate the change of blood EPA concentration. The self-emulsifying composition in an amount corresponding to 1800 mg of EPA-E was orally administered in single dose to each human who had been fasted since 10 hours or more before the administration by using 200 mL of water in the morning under fasting. The blood was collected 0.5, 1, 1.5, 2, 3, 4, 5, 6, 7, 8, 9, 10, 12, 15, 18, 24, 48 and 72 hours after the administration. Immediately after the collection, the blood was cooled on ice, and centrifuged at 2000×g at 4° C. for 10 minutes to separately collect the plasma. After having stored the resulting plasma at a temperature not higher than −20° C. in frozen state, concentration of the EPA in the plasma was measured by LC/MS/MS (method in which a sample is isolated by liquid chromatography, then subjected to mass spectrometry to conduct separation and measurement thereon). […]
In the calculation of each parameter, correction was made by subtracting the blood EPA concentration before the administration from the measured blood concentration.

SMILES: CC/C=C\C/C=C\C/C=C\C/C=C\C/C=C\CCCC(=O)OCC [EPA-E stock solution, Ethyl eicosapentaenoate]
- Cmax [1]: 3600 ng/mL
- Cmax [2]: 4600 ng/mL
